System: SARS-CoV-2
Format: cell-based

Row | SMILES | block of the cytopathic effect (CPE) of SARS-CoV-2
1 | O=C(Oc1cncc(Cl)c1)c1cccc2c1CCN2 [CTRL-1720S] | significantly block the cytopathic effect
2 | COc1cccc2[nH]c(C(=O)N[C@@H](CC(C)C)C(=O)N[C@@H](C[C@@H]3CCNC3=O)C(=O)c3nc4ccccc4s3)cc12 [GRL-2420S] | significantly block the cytopathic effect
